Results published in US20050267066A1, “Pharmaceutical composition comprising a CDK inhibitor and gemcitabine” (Cyclacel Limited, priority 2002, published 2005).
Where two headings read alike, the source gives them in different places.

Experiments:
[1] = tested on: human prostrate tumor cells; details: concurrent exposure
Description: The MTT assay is a spectrophotometric assay based on the ability of viable cells to convert MTT to formazan. Cell concentrations were estimated by measuring absorbance at test wavelength of 570 nm and a reference wavelength of 630 nm. An automated procedure was utilized to determine the IC50 value (concentration of drug which inhibits cell growth by 50% of the control) of all agents used in these studies.
After the initial IC50 analysis was complete, the combinations were then tested. For the combination studies, the concentration (expressed as a percent of the individual agent's IC50) schema used to characterise the type of interaction is shown below:
If the majority of (≧3 of 5) of the values are statistically above or below the line (endpoints) then antagonism or synergy is described, respectively. Otherwise, the pattern is more consistent with an additive interaction.

[2] = tested on: breast tumor cells (MDA-435); test: MTT assay, 24 hour pre-exposure to roscovitine followed by 24 hour exposure to gemcitabine; type: cell-based; details: 24 h roscovitine then 24 h gemcitabine
[3] = % IC50 0/100: roscovitine 0, gemcitabine 11.25 ng/ml
[4] = % IC50 0/100: roscovitine 0, gemcitabine 15.00 ng/ml
[5] = % IC50 100/0: roscovitine 6.75 ug/ml, gemcitabine 0
[6] = % IC50 100/0: roscovitine 9.00 ug/ml, gemcitabine 0

Compound | % Abs [1, 3] | % Response [1, 3] | % Abs [2, 4] | % Response [2, 4] | % Abs [1, 5] | % Response [1, 5] | % Abs [2, 6] | % Response [2, 6]
Nc1ccn([C@@H]2O[C@H](CO)[C@@H](O)C2(F)F)c(=O)n1 [Gemc., 2′-deoxy-2′,2′-difluorocytidine] | 93.1% | 6.9% | 85.0% | 15.0% | – | – | – | –
CC[C@H](CO)Nc1nc(NCc2ccccc2)c2ncn(C(C)C)c2n1 [Roscovitine, 6-benzylamino-2-[(R)-1-ethyl-2-hydroxyethylamino]-9-isopropylpurine] | – | – | – | – | 83.3% | 16.7% | 64.5% | 35.5%
